# Measured values reported in US20230233569A1 (Revolution Medicines, Inc., priority 2020, published 2023).
# Experiments:
# [1] = tested on: AKT1/2/3 (Ser473) phosphorylation (mTORC2) in MDA-MB-468 cells; assay: Cell based AlphaLISA assay, mTOR kinase cellular assay: inhibition of p-Akt (S473) in MDA-MB-468 cells; settings: Homo sapiens, read-out: pIC50 for Inhibition of mTORC1 and mTORC2 Substarte Phosphorylation p-AKT1/2/3-(S473) (converted)
# Experimental: Cell Based AlphaLISA Assays for Determining IC50 For Inhibition of P-Akt (S473), P-4E-BP1 (T37/46), and P-P70S6K (T389) in MDA-MB-468 Cells
# mTOR Kinase Cellular Assay
# To measure functional activity of mTORC1 and mTORC2 in cells the phosphorylation of 4EBP1 (Thr37/46) and P70S6K (Thr389), and AKT1/2/3 (Ser473) was monitored using AlphaLisa SureFire Ultra Kits (Perkin Elmer). MDA-MB-468 cells (ATCC® HTB-132) were cultured in 96-well tissue culture plates and treated with compounds in the disclosure at concentrations varying from 0.017-1,000 nM for two to four hours at 37° C. Incubations were terminated by removal of the assay buffer and addition of lysis buffer provided with the assay kit. Samples were processed according to the manufacturer's instructions. The Alpha signal from the respective phosphoproteins was measured in duplicate using a microplate reader (Envision, Perkin-Elmer or Spectramax M5, Molecular Devices). Inhibitor concentration response curves were analyzed using normalized IC50 regression curve fitting with control based normalization.
# AsPC-1 (K-Ras G12D) [2] = assay: CellTiter-Glo cell viability assay; type: cell-based; settings: Homo sapiens, ASPC1, 120 h, read-out: AsPC-1 Cell Viability assay data IC50, K-Ras G12D, 5-day treatment
# Experimental: Determination of Cell Viability in RAS Mutant Cancer Cell Lines
# Protocol: CellTiter-Glo® Cell Viability Assay
# Note—The following protocol describes a procedure for monitoring cell viability of K-Ras mutant cancer cell lines in response to a compound of the invention. Other RAS isoforms may be employed, though the number of cells to be seeded will vary based on cell line used.
# Test compounds (132.5 nL) were directly dispensed into the assay plates containing cells. […] On day 5, assay plates and their contents were equilibrated to room temperature for approximately 30 minutes. […] Luminescence was measured using the PerkinElmer Enspire. Data were normalized by the following: (Sample signal/Avg. DMSO)*100. The data were fit using a four-parameter logistic fit.
# NRAS Q61R = NRAS Q61R (Homo sapiens, UniProt P01111+P62937, Q61R); assay: Ras-Raf disruption / FRET / MOA assay (BRAF RBD); type: biochemical
# NRAS Q61R, sequence (P01111 whole entry Q61R): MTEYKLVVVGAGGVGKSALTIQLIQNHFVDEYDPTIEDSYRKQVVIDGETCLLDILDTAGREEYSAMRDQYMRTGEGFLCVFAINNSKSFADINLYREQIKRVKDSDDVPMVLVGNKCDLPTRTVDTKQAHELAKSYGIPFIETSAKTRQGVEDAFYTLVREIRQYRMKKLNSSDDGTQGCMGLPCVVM
# NRAS Q61R, sequence (P62937 whole entry): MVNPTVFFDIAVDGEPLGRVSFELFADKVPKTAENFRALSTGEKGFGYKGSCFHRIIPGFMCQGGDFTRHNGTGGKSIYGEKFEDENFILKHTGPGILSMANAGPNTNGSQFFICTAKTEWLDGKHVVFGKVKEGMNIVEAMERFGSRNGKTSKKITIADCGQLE
# Procedure, shortened: (§1)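 TR-FRET in 25 mM HEPES pH 7.3, 100 mM NaCl, 5 mM MgCl2, 0.1% BSA, 0.002% Tween20 with 25 μM Cyclophilin A, 12.5 nM His6-Ras-GMPPNP, 50 nM GST-BRAF RBD; compound 10-point 3-fold series from 30 μM. After 3 h at 25 °C, Eu anti-His/APC anti-GST added for 1.5 h; IC50 from ratio decrease versus DMSO.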
# KRAS G12V = KRAS G12V (Homo sapiens, UniProt P01116+P62937, G12V); assay: Ras-Raf disruption / FRET / MOA assay (BRAF RBD); type: biochemical; settings: KRAS G12V FRET data IC50, Ras-Raf disruption, with Cyclophilin A
# KRAS G12V, sequence (P01116 1-169 isoform P01116-2 G12V limits assumed): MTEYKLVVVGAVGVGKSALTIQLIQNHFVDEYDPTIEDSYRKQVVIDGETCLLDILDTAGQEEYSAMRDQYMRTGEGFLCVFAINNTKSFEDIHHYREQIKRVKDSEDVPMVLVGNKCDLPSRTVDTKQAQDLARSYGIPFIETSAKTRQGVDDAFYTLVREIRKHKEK
# KRAS G12V, sequence (P62937 whole entry): as the sequence (P62937 whole entry) above
# Procedure, shortened: as §1
# KRAS G13C = KRAS G13C (Homo sapiens, UniProt P01116+P62937, G13C); assay: Ras-Raf disruption / FRET / MOA assay (BRAF RBD); type: biochemical; settings: KRAS G13C FRET data IC50, Ras-Raf disruption, with Cyclophilin A
# KRAS G13C, sequence (P01116 1-169 isoform P01116-2 G13C limits assumed): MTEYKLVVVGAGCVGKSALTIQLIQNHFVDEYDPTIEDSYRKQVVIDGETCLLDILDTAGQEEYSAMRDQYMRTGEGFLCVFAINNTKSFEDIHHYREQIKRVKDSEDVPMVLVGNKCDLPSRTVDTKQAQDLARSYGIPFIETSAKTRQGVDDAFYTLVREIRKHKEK
# KRAS G13C, sequence (P62937 whole entry): as the sequence (P62937 whole entry) above
# Procedure, shortened: as §1
# KRAS G13D = KRAS G13D (Homo sapiens, UniProt P01116+P62937, G13D); assay: Ras-Raf disruption / FRET / MOA assay (BRAF RBD); type: biochemical; settings: KRAS G13D FRET data IC50, Ras-Raf disruption, with Cyclophilin A
# KRAS G13D, sequence (P01116 1-169 isoform P01116-2 G13D limits assumed): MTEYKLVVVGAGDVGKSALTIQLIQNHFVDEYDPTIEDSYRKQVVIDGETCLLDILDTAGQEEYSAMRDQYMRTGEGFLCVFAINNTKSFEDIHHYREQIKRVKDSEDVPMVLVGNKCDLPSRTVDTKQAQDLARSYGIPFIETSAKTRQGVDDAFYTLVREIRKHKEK
# KRAS G13D, sequence (P62937 whole entry): as the sequence (P62937 whole entry) above
# Procedure, shortened: as §1
# KRAS WT = KRAS WT (Homo sapiens, UniProt P01116+P62937); assay: Ras-Raf disruption / FRET / MOA assay (BRAF RBD); type: biochemical; settings: KRAS WT FRET data IC50, Ras-Raf disruption, with Cyclophilin A
# KRAS WT, sequence (P01116 1-169 isoform P01116-2 limits assumed): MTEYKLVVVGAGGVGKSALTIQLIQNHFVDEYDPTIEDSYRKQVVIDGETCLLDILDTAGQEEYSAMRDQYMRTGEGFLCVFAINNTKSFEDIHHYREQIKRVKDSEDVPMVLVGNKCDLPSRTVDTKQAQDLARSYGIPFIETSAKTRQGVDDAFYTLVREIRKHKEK
# KRAS WT, sequence (P62937 whole entry): as the sequence (P62937 whole entry) above
# Procedure, shortened: as §1
# NRAS Q61K = NRAS Q61K (Homo sapiens, UniProt P01111+P62937, Q61K); assay: Ras-Raf disruption / FRET / MOA assay (BRAF RBD); type: biochemical
# NRAS Q61K, sequence (P01111 whole entry Q61K): as the sequence (P01111 whole entry Q61R) above, with R61K counted along it
# NRAS Q61K, sequence (P62937 whole entry): as the sequence (P62937 whole entry) above
# Procedure, shortened: as §1
# KRAS G12D = KRAS G12D (Homo sapiens, UniProt P01116+P62937, G12D); assay: Ras-Raf disruption / FRET / MOA assay (BRAF RBD); type: biochemical; settings: KRAS G12D FRET data IC50, Ras-Raf disruption, with Cyclophilin A
# KRAS G12D, sequence (P01116 1-169 isoform P01116-2 G12D limits assumed): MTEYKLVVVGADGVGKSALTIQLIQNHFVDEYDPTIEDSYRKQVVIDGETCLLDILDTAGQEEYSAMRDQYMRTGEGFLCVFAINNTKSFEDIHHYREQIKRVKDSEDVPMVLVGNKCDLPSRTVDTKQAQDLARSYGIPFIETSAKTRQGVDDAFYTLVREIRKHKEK
# KRAS G12D, sequence (P62937 whole entry): as the sequence (P62937 whole entry) above
# Procedure, shortened: as §1
# NRAS G12C = NRAS G12C (Homo sapiens, UniProt P01111+P62937, G12C); assay: Ras-Raf disruption / FRET / MOA assay (BRAF RBD); type: biochemical; settings: NRAS G12C FRET data IC50, NRAS G12C
# NRAS G12C, sequence (P01111 whole entry G12C): as the sequence (P01111 whole entry Q61R) above, with G12C, R61Q counted along it
# NRAS G12C, sequence (P62937 whole entry): as the sequence (P62937 whole entry) above
# Procedure, shortened: as §1
# NRAS WT = NRAS WT (Homo sapiens, UniProt P01111+P62937); assay: Ras-Raf disruption / FRET / MOA assay (BRAF RBD); type: biochemical
# NRAS WT, sequence (P01111 whole entry): as the sequence (P01111 whole entry Q61R) above, with R61Q counted along it
# NRAS WT, sequence (P62937 whole entry): as the sequence (P62937 whole entry) above
# Procedure, shortened: as §1
# KRAS Q61H = KRAS Q61H (Homo sapiens, UniProt P01116+P62937, Q61H); assay: Ras-Raf disruption / FRET / MOA assay (BRAF RBD); type: biochemical
# KRAS Q61H, sequence (P01116 1-169 isoform P01116-2 Q61H limits assumed): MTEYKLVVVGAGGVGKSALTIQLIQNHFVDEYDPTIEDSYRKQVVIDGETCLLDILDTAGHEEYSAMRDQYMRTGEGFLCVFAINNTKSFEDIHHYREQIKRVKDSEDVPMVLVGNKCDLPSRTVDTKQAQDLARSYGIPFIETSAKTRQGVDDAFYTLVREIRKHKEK
# KRAS Q61H, sequence (P62937 whole entry): as the sequence (P62937 whole entry) above
# Procedure, shortened: as §1
# KRAS G12S = KRAS G12S (Homo sapiens, UniProt P01116+P62937, G12S); assay: Ras-Raf disruption / FRET / MOA assay (BRAF RBD); type: biochemical; settings: KRAS G12S FRET data IC50, Ras-Raf disruption, with Cyclophilin A
# KRAS G12S, sequence (P01116 1-169 isoform P01116-2 G12S limits assumed): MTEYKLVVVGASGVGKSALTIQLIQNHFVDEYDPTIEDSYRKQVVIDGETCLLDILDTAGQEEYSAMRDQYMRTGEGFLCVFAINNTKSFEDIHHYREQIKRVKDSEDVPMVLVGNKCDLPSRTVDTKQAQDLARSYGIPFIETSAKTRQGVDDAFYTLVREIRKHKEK
# KRAS G12S, sequence (P62937 whole entry): as the sequence (P62937 whole entry) above
# Procedure, shortened: as §1
# KRAS G12C = KRAS G12C (Homo sapiens, UniProt P01116+P62937, G12C); assay: Ras-Raf disruption / FRET / MOA assay (BRAF RBD); type: biochemical; settings: KRAS G12C FRET data IC50, Ras-Raf disruption, with Cyclophilin A
# KRAS G12C, sequence (P01116 1-169 isoform P01116-2 G12C limits assumed): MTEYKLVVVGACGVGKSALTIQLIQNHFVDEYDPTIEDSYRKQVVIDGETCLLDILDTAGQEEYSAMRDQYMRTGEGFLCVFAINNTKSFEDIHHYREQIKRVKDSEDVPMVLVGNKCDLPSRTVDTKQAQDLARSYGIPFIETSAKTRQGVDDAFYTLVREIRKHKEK
# KRAS G12C, sequence (P62937 whole entry): as the sequence (P62937 whole entry) above
# Procedure, shortened: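 His6-K-Ras G12C-GMPPNP (12.5 nM), GST-BRAF RBD (50 nM) and tagless Cyclophilin A (25 μM) incubated 3 h at 25 °C with compound (10-point 3-fold series from 30 μM), pH 7.3 HEPES buffer. Anti-His Eu/anti-GST APC added for 1.5 h; decreased TR-FRET ratio vs DMSO gives IC50.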
# AsPC-1 (K-Ras G12D) [3] = assay: Potency assay: pERK; type: cell-based; settings: Homo sapiens, ASPC1, read-out: pERK EC50
smiles,measurement,setting,value
CO[C@H]1C[C@@H]2CC[C@@H](C)[C@@](O)(O2)C(=O)C(=O)N2CCCC[C@H]2C(=O)O[C@H]([C@H](C)C[C@@H]2CC[C@@H](OC(=O)NCc3cnc(N4CCN(c5ncc(C(=O)NCCOCCOCCOCCOCCC(=O)N6CCc7cc(Cn8nc(-c9cnc%10[nH]ccc%10c9)c9c(N)ncnc98)ccc7C6)cn5)CC4CO)nc3)[C@H](OC)C2)CC(=O)[C@H](C)/C=C(\C)[C@@H](O)[C@@H](OC)C(=O)[C@H](C)C[C@H](C)/C=C/C=C/C=C/1C (stereo partly drawn) [Example 41],IC50,[1],> 1000 nM
CO[C@H]1C[C@@H]2CC[C@@H](C)[C@@](O)(O2)C(=O)C(=O)N2CCCC[C@H]2C(=O)O[C@H]([C@H](C)C[C@@H]2CC[C@@H](OC(=O)NCCOCCOCCOCCOCCOCCOCCOCCOCCC(=O)NCc3ccc(Cn4nc(-c5ccc6oc(N)nc6c5)c5c(N)ncnc54)cc3)[C@H](OC)C2)CC(=O)[C@H](C)/C=C(\C)[C@@H](O)[C@@H](OC)C(=O)[C@H](C)C[C@H](C)/C=C/C=C/C=C/1C [Example 79],IC50,[1],31.6 to 1000 nM
CO[C@H]1C[C@@H]2CC[C@@H](C)[C@@](O)(O2)C(=O)C(=O)N2CCCC[C@H]2C(=O)O[C@H]([C@H](C)C[C@@H]2CC[C@@H](OC(=O)NCc3cnc(N4CCN(C(=O)CCOCCN5CCN(c6ncc(C(=O)N7CCc8cc(Cn9nc(-c%10ccc%11oc(N)nc%11c%10)c%10c(N)ncnc%109)ccc8C7)cn6)CC5)CC4)nc3)[C@H](OC)C2)C[C@H](N=[N+]=[N-])[C@H](C)/C=C(\C)[C@@H](O)[C@@H](OC)C(=O)[C@H](C)C[C@H](C)/C=C/C=C/C=C/1C [Example 151],IC50,[1],> 1000 nM
CO[C@H]1C[C@@H]2CC[C@@H](C)[C@@](O)(O2)C(=O)C(=O)N2CCCC[C@H]2C(=O)O[C@H]([C@H](C)C[C@@H]2CC[C@@H](OC(=O)NCCOCCOCCN3C[C@@H]4C[C@H]3CN4CCOCCOCCOCCOCCC(=O)N3CCc4cc(Cn5nc(-c6ccc7oc(N)nc7c6)c6c(N)ncnc65)ccc4C3)[C@H](OC)C2)C[C@@H](O)[C@H](C)/C=C(\C)[C@@H](O)[C@@H](OC)C(=O)[C@H](C)C[C@H](C)/C=C/C=C/C=C/1C [Example 152],IC50,[1],31.6 to 1000 nM
CO[C@H]1C[C@@H]2CC[C@@H](C)[C@@](O)(O2)C(=O)C(=O)N2CCCC[C@H]2C(=O)O[C@H]([C@H](C)C[C@@H]2CC[C@@H](OC(=O)NCc3cnc(N4CCN(C(=O)CCOCCN5CCN(C(=O)CCC(=O)N6CCc7cc(Cn8nc(-c9ccc%10oc(N)nc%10c9)c9c(N)ncnc98)ccc7C6)CC5)CC4)nc3)[C@H](OC)C2)C[C@@H](O)[C@H](C)/C=C(\C)[C@@H](O)[C@@H](OC)C(=O)[C@H](C)C[C@H](C)/C=C/C=C/C=C/1C [Example 129],IC50,[1],> 1000 nM
CO[C@H]1C[C@@H]2CC[C@@H](C)[C@@](O)(O2)C(=O)C(=O)N2CCCC[C@H]2C(=O)O[C@H]([C@H](C)C[C@@H]2CC[C@@H](OC(=O)NCc3cnc(N4CCN(C(=O)CCOCCN5CCN(c6ncc(C(=O)N7CCc8cc(Cn9nc(-c%10ccc%11oc(N)nc%11c%10)c%10c(N)ncnc%109)ccc8C7)cn6)CC5)[C@@H](C(=O)O)C4)nc3)[C@H](OC)C2)C[C@@H](OC)[C@H](C)/C=C(\C)[C@@H](O)[C@@H](OC)C(=O)[C@H](C)C[C@H](C)/C=C/C=C/C=C/1C [Example 131],IC50,[1],3.16 to 31.6 nM
CO[C@H]1C[C@@H]2CC[C@@H](C)[C@@](O)(O2)C(=O)C(=O)N2CCCC[C@H]2C(=O)O[C@H]([C@H](C)C[C@@H]2CC[C@@H](OC(=S)NCc3cnc(N4CCN(C(=O)CCOCCN5CCN(c6ncc(C(=O)N7CCc8cc(Cn9nc(-c%10ccc%11oc(N)nc%11c%10)c%10c(N)ncnc%109)ccc8C7)cn6)CC5)CC4)nc3)[C@H](OC)C2)CC(=O)[C@H](C)/C=C(\C)[C@@H](O)[C@@H](OC)C(=O)[C@H](C)C[C@H](C)/C=C/C=C/C=C/1C [Example 116],IC50,[1],> 1000 nM
CO[C@H]1C[C@@H]2CC[C@@H](C)[C@@](O)(O2)C(=O)C(=O)N2CCCC[C@H]2C(=O)O[C@H]([C@H](C)C[C@@H]2CC[C@@H](OC(=O)NCc3cnc(N4CCN(c5ncc(C(=O)NCCOCCC(=O)N6CCN(c7ncc(C(=O)NCCCCn8nc(-c9ccc%10oc(N)nc%10c9)c9c(N)ncnc98)cn7)CC6)cn5)CC4)nc3)[C@H](OC)C2)CC(=O)[C@H](C)/C=C(\C)[C@@H](O)[C@@H](OC)C(=O)[C@H](C)C[C@H](C)/C=C/C=C/C=C/1C [Example 53],IC50,[1],3.16 to 31.6 nM
CO[C@H]1C[C@@H]2CC[C@@H](C)[C@@](O)(O2)C(=O)C(=O)N2CCCC[C@H]2C(=O)O[C@H]([C@H](C)C[C@@H]2CC[C@@H](OC(=O)N3CCc4nc(N5CCN(C(=O)CCOCCN6CCN(c7ncc(C(=O)N8CCc9cc(Cn%10nc(-c%11ccc%12oc(N)nc%12c%11)c%11c(N)ncnc%11%10)ccc9C8)cn7)CC6)CC5)ncc4C3)[C@H](OC)C2)C[C@@H](OC)[C@H](C)/C=C(\C)[C@@H](O)[C@@H](OC)C(=O)[C@H](C)C[C@H](C)/C=C/C=C/C=C/1C [Example 114],IC50,[1],> 1000 nM
CO[C@H]1C[C@@H]2CC[C@@H](C)[C@@](O)(O2)C(=O)C(=O)N2CCCC[C@H]2C(=O)O[C@H]([C@H](C)C[C@@H]2CC[C@@H](OC(=S)NCc3cnc(N4CCN(C(=O)CCOCCN5CCN(c6ncc(C(=O)N7CCc8cc(Cn9nc(-c%10ccc%11oc(N)nc%11c%10)c%10c(N)ncnc%109)ccc8C7)cn6)CC5)CC4)nc3)[C@H](OC)C2)C[C@@H](OC)[C@H](C)/C=C(\C)[C@@H](O)[C@@H](OC)C(=O)[C@H](C)C[C@H](C)/C=C/C=C/C=C/1C [Example 118],IC50,[1],3.16 to 31.6 nM
CCn1c(-c2cccnc2[C@H](C)OC)c2c3cc(ccc31)-c1cc(O)cc(c1)C[C@H](NC(=O)[C@H](C(C)C)N(C)C(=O)CN(C)C(=O)[C@@H]1CN1CCCN1CCCC1=O)C(=O)N1CCC[C@H](N1)C(=O)OCC(C)(C)C2 (stereo partly drawn) [Example 269],IC50,AsPC-1 (K-Ras G12D) [2],1 to 10 µM
same,IC50,NRAS Q61R,100 to 1000 nM
same,IC50,KRAS G12V,10 to 100 nM
same,IC50,KRAS G13C,10 to 100 nM
same,IC50,KRAS G13D,100 to 1000 nM
same,IC50,KRAS WT,10 to 100 nM
same,IC50,NRAS Q61K,100 to 1000 nM
same,IC50,KRAS G12D,10 to 100 nM
same,IC50,NRAS G12C,< 10 nM
same,IC50,NRAS WT,10 to 100 nM
same,IC50,KRAS Q61H,10 to 100 nM
same,IC50,KRAS G12S,10 to 100 nM
same,IC50,KRAS G12C,< 10 nM
same,EC50,AsPC-1 (K-Ras G12D) [3],< 5 µM
